Key:
Human COX-2 [1] = biological target: T1, Human COX-2 (Homo sapiens, UniProt P35354); test: Assay for COX-1 and COX-2 activity (PGE2 ELISA, recombinant enzyme), COX-2; type: biochemical; details: Table I; pre-incubated 10-20 minutes, arachidonic acid 10 μM, stopped after ten minutes, pH 8.0
T1 construct: A 2.0 kb fragment containing the coding region of either human or murine COX-1 or human or murine COX-2; made in house; host or cells: SF9 insect cells (baculovirus, transfer vector pVL1393)
T1 sequence (P35354 18-604): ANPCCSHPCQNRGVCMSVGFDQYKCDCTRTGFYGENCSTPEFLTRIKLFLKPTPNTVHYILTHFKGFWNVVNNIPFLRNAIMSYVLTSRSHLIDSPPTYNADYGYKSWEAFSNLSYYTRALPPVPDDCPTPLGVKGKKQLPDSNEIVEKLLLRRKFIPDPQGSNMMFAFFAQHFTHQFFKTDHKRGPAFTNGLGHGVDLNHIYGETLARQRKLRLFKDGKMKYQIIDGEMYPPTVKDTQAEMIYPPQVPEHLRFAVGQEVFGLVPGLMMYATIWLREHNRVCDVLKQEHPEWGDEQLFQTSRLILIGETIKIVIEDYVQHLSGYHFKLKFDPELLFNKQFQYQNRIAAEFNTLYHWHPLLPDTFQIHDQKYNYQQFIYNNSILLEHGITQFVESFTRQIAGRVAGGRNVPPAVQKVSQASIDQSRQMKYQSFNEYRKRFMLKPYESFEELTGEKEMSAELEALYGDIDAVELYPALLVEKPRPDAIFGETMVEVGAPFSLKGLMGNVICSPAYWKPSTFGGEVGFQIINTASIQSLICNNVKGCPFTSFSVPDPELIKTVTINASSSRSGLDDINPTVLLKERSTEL
Procedure: The COX-2 inhibition activity of the compounds of this invention illustrated in the Examples was determined by the following methods.
(§1) Recombinant COX-1 and COX-2 were prepared as described by Gierse et al, [J. Biochem., 305, 479-84 (1995)]. A 2.0 kb fragment containing the coding region of either human or murine COX-1 or human or murine COX-2 was cloned into a BamH1 site of the baculovirus transfer vector pVL1393 (Invitrogen) to generate the baculovirus transfer vectors for COX-1 and COX-2 in a manner similar to the method of D. R. O'Reilly et al (Baculovirus Expression Vectors: A Laboratory Manual (1992)). Recombinant baculoviruses were isolated by transfecting 4 μg of baculovirus transfer vector DNA into SF9 insect cells (2×10^8) along with 200 ng of linearized baculovirus plasmid DNA by the calcium phosphate method. See M. D. Summers and G. E. Smith, A Manual of Methods for Baculovirus Vectors and Insect Cell Culture Procedures, Texas Agric. Exp. Station Bull. 1555 (1987). Recombinant viruses were purified by three rounds of plaque purification and high titer (10^7-10^8 pfu/mL) stocks of virus were prepared. For large scale production, SF9 insect cells were infected in 10 liter fermentors (0.5×10^6/mL) with the recombinant baculovirus stock such that the multiplicity of infection was 0.1. After 72 hours the cells were centrifuged and the cell pellet homogenized in Tris/Sucrose (50 mM: 25%, pH 8.0) containing 1% 3-[(3-cholamidopropyl)dimethylammonio]-1-propanesulfonate (CHAPS). The homogenate was centrifuged at 10,000×G for 30 minutes, and the resultant supernatant was stored at −80° C. before being assayed for COX activity.
(§2) COX activity was assayed as PGE2 formed/μg protein/time using an ELISA to detect the prostaglandin released. CHAPS-solubilized insect cell membranes containing the appropriate COX enzyme were incubated in a potassium phosphate buffer (50 mM, pH 8.0) containing epinephrine, phenol, and heme with the addition of arachidonic acid (10 μM). Compounds were pre-incubated with the enzyme for 10-20 minutes prior to the addition of arachidonic acid. Any reaction between the arachidonic acid and the enzyme was stopped after ten minutes at 37° C./room temperature by transferring 40 μl of reaction mix into 160 μELISA buffer and 25 μM indomethacin. The PGE2 formed was measured by standard ELISA technology (Cayman Chemical).

Human COX-1 [2] = biological target: T2, Human COX-1 (Homo sapiens, UniProt P23219); test: Assay for COX-1 and COX-2 activity (PGE2 ELISA, recombinant enzyme), COX-1; type: biochemical; details: Table I; pre-incubated 10-20 minutes, arachidonic acid 10 μM, stopped after ten minutes, pH 8.0
T2 construct: A 2.0 kb fragment containing the coding region of either human or murine COX-1 or human or murine COX-2; made in house; host or cells: SF9 insect cells (baculovirus, transfer vector pVL1393)
Procedure: as §1, with “Recombinant” for “Recombinant COX-1 and COX-2 were prepared as described by Gierse et al, [J. Biochem., 305, 479-84 (1995)]. A 2.0 kb fragment containing the coding region of either human or murine COX-1 or human or murine COX-2 was cloned into a BamH1 site of the baculovirus transfer vector pVL1393 (Invitrogen) to generate the baculovirus transfer vectors for COX-1 and COX-2 in a manner similar to the method of D. R. O'Reilly et al (Baculovirus Expression Vectors: A Laboratory Manual (1992)). Recombinant”, “1555 (1987).” left out
as §2, with “Any reaction between the arachidonic acid and the enzyme was stopped after ten minutes at 37° C./room temperature by transferring 40 μl of reaction mix into 160 μELISA buffer and 25 μM indomethacin.” left out

Human COX-2 [3] = biological target: T1, Human COX-2; test: Fast assay for COX-1 and COX-2 activity (PGE2 ELISA), COX-2; type: biochemical; details: Table II, pre-incubated 10 minutes at 25° C., arachidonic acid 10 μM, stopped after two minutes, pH 7.5
Procedure: as §1
(§3) COX activity was assayed as PGE2 formed/μg protein/time using an ELISA to detect the prostaglandin released. CHAPS-solubilized insect cell membranes containing the appropriate COX enzyme were incubated in a potassium phosphate buffer (0.05 M Potassium phosphate, pH 7.5, 2 μM phenol, 1 μM heme, 300 μM epinephrine) with the addition of 20 μl of 100 μM arachidonic acid (10 μM). Compounds were pre-incubated with the enzyme for 10 minutes at 25° C. prior to the addition of arachidonic acid. Any reaction between the arachidonic acid and the enzyme was stopped after two minutes at 37° C./room temperature by transferring 40 μl of reaction mix into 160 μl ELISA buffer and 25 μM indomethacin. The PGE2 formed was measured by standard ELISA technology (Cayman Chemical).

Human COX-1 [4] = biological target: T2, Human COX-1; test: Fast assay for COX-1 and COX-2 activity (PGE2 ELISA), COX-1; type: biochemical; details: Table II, pre-incubated 10 minutes at 25° C., arachidonic acid 10 μM, stopped after two minutes, pH 7.5
Procedure: as §1, with “Recombinant” for “Recombinant COX-1 and COX-2 were prepared as described by Gierse et al, [J. Biochem., 305, 479-84 (1995)]. A 2.0 kb fragment containing the coding region of either human or murine COX-1 or human or murine COX-2 was cloned into a BamH1 site of the baculovirus transfer vector pVL1393 (Invitrogen) to generate the baculovirus transfer vectors for COX-1 and COX-2 in a manner similar to the method of D. R. O'Reilly et al (Baculovirus Expression Vectors: A Laboratory Manual (1992)). Recombinant”, “1555 (1987).” left out
as §3, with “Any reaction between the arachidonic acid and the enzyme was stopped after two minutes at 37° C./room temperature by transferring 40 μl of reaction mix into 160 μl ELISA buffer and 25 μM indomethacin.” left out

T2 sequence (P23219 24-599): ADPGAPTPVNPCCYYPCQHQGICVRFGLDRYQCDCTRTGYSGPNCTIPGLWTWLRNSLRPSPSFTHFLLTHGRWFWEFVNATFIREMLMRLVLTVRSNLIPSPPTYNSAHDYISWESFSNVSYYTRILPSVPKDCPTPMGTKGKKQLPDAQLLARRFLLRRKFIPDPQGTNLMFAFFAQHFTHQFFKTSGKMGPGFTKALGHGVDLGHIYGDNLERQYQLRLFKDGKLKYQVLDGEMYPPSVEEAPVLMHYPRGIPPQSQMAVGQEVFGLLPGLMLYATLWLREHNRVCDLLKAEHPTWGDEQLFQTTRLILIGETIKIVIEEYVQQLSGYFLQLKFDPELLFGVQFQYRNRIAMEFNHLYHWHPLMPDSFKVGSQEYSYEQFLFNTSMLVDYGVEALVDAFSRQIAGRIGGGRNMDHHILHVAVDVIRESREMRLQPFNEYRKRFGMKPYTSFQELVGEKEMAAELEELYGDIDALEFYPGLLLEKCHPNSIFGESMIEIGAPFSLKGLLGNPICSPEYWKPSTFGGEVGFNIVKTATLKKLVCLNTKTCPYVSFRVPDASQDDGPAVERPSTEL

IC50 (Human COX-2 [1]) [nM]	IC50 (Human COX-1 [2]) [nM]	IC50 (Human COX-2 [3]) [nM]	IC50 (Human COX-1 [4]) [nM]	melting point [°C]	SMILES
15900	> 100000	3730	> 100000	161 to 162	CS(=O)(=O)c1ccc(C2=C(c3ccccc3)C(=O)OC2)cc1F [Example 24]
250	> 100000	870	> 100000	152 to 153	CS(=O)(=O)c1ccc(-c2cc(C(F)(F)F)nn2-c2ccc(C#N)cc2)cc1F [Example 16, 4-[5-[3-Fluoro-4-(methylsulfonyl)Phenyl]-3-(trifluoromethyl)-1H-Pyrazol-1-yl]benzonitrile]
700	> 100000	340	> 100000	–	CS(=O)(=O)c1ccc(-c2cc(C(F)F)nn2C2CCCCC2)cc1F [Example 19, 1-Cyclohexyl-3-(difluoromethyl)-5-[3-fluoro-4-(methylsulfonyl)phenyl]-1H-pyrazole]
36	> 100000	53	> 100000	–	Cc1ccc(-n2nc(C(F)F)cc2-c2ccc(S(C)(=O)=O)c(F)c2)cc1Cl [Example 20, 1-(3-Chloro-4-methylphenyl)-3-(difluoromethyl)-5-[3-fluoro-4-(methylsulfonyl)phenyl]-1H-pyrazole]
15	> 100000	5	> 100000	176 to 177	Cc1onc(-c2ccc(F)cc2)c1-c1ccc(S(N)(=O)=O)c(F)c1 [Example 22, 2-Fluoro-4-[3-(4-fluorophenyl)-5-methyl-4-isoxazolyl]-benzenesulfonamide]

The remaining lines, values behind:

SMILES	IC50 (Human COX-2 [1]) [nM]	IC50 (Human COX-1 [2]) [nM]	IC50 (Human COX-2 [3]) [nM]	IC50 (Human COX-1 [4]) [nM]	melting point [°C]
NS(=O)(=O)c1ccc(-c2cscc2-c2ccccc2)cc1F [Example 1, 2-Fluoro-4-(4-phenyl-3-thienyl)benzenesulfonamide]	11	37900	13	29400	170.9 to 171
CS(=O)(=O)c1ccc(-c2cc(C(F)(F)F)nn2-c2ccc(F)cc2)cc1F [Example 11, 5-[3-Fluoro-4-(methylsulfonyl)phenyl]-1-(4-fluorophenyl)-3-(trifluoromethyl)-1H-pyrazole]	150	> 100000	130	22600	228 to 229
CS(=O)(=O)c1ccc(-c2cscc2-c2ccccc2)cc1F [Example 2, 3-[3-Fluoro-4-(methylsulfonyl)phenyl]-4-phenylthiophene]	51	> 100000	43	> 100000	140 to 141
Cc1ccc(-c2cc(C(F)F)nn2-c2ccc(S(N)(=O)=O)c(F)c2)cc1Cl [Example 3, 4-[5-(3-chloro-4-methylphenyl)-3-(difluoromethyl)-1H-pyrazol-1-yl]-2-fluorobenzenesulfonamide]	5	16300	4	26900	160 to 161
Cc1ccc(-n2nc(C(F)(F)F)cc2-c2ccc(S(C)(=O)=O)c(F)c2)cc1Cl [Example 15, 1-(3-Chloro-4-methylphenyl)-5-[3-fluoro-4-(methylsulfonyl)phenyl]-3-(trifluoromethyl)-1H-pyrazole]	16	> 100000	15	2360	144 to 145
NS(=O)(=O)c1ccc(-n2nc(C(F)(F)F)cc2-c2ccc(F)cc2)cc1F [Example 8, 2-Fluoro-4-[5-(4-fluorophenyl)-3-(trifluoromethyl)-1H-pyrazol-1-yl]benzenesulfonamide]	20	56800	21	41500	–
NS(=O)(=O)c1ccc(-n2nc(C(F)(F)F)cc2-c2ccc(Cl)cc2)cc1F [Example 5, 4-[5-(4-Chlorophenyl)-3-trifluoromethyl-1H-pyrazol-1-yl]-2-fluorobenzenesulfonamide]	5	45900	4	19900	–

From patent US20020183362A1, “2-Fluorobenzenesulfonyl compounds for the treatment of inflammation” (Pharmacia Corporation, priority 2000, published 2002)
